Results taken from US20060234986A1, “Use of TAFI inhibitors for enhanced myocardial reperfusion and facilitated PCI” (Schering Aktiengesellschaft, priority 2005, published 2006).

Key:
[1] = test system: rat femoral artery occlusive thrombus; assay: Rat femoral artery thrombosis model (rose Bengal + light irradiation), incidence of reperfusion; assay type: in vivo
Text: A stable, occlusive thrombus was formed by giving rose Bengal intravenously followed by light irradiation. Free radicals generated at the site of irradiation result in endothelial damage that causes an occlusive thrombus. Thrombotic occlusion and effective fibrinolysis (reperfusion) were monitored by measuring blood flow with a Doppler flow probe. Since no spontaneous reperfusion is observed in this model, a threshold dose of tPA was used to mimic the endogenous fibrinolytic activity observed in patients with STEMI undergoing PCI (16-25% spontaneous reperfusion rate). […] Based on the results of phanmacokinetic studies and in vitro clot lysis assays, two doses (3 and 10 mg/kg) of a TAFI inhibitor of the invention, (2S)-2-(3-(amino)methylphenyl)-3-(((1R)-1-(3-phenylpropylsulfonyl)amino-2-methylpropyl)(hydroxy)phosphinoyl)propanoic acid trifluoroacetate, were used.
Male Wistar rats (241-270 g) were anesthetized with sodium pentobarbital. A section of the right femoral artery was isolated carefully, and a pulse Doppler flow probe was placed for monitoring blood flow. The left carotid artery, both jugular veins, and left femoral vein were cannulated with polyethylene tubes for monitoring blood pressure and heart rate, for injection of tPA, rose Bengal and TAFI inhibitor, respectively. Blood flow, blood pressure and heart rate were continuously recorded on a thermal recorder during the experiment. An occlusive thrombus was induced in the right femoral artery by bolus injection of rose Bengal followed by light exposure. Occlusive thrombus was observed approximately 6 min after the injection of rose Bengal and start of irradiation.
Rats were assigned to four groups for the tPA dose response as follows: • (1) Vehicle (saline; n=8) • (2) tPA (72 μg/kg/min=2.5 million I.U./kg/hr; n=8) • (3) tPA (115 μg/kg/min=4 million I.U./kg/hr; n=10) • (4) tPA (230 μg/kg/min=8 million I.U./kg/hr; n=8)
tPA or vehicle was infused via the right jugular vein beginning 10 min after the formation of occlusive thrombus and the infusion was continued for 60 min.
Rats were assigned to three groups for the TAFI inhibitor efficacy study as follows: • (1) tPA threshold (72 μg/kg/min, n=16) • (2) low TAFI inhibitor (3 mg/kg+0.03 mg/kg/min) and tPA threshold (72 μg/kg/min) (n=8) • (3) high TAFI inhibitor (10 mg/kg+0.10 mg/kg/min) and tPA threshold (72 μg/kg/min) (n=8)
Administration of TAFI inhibitor or vehicle via the left femoral vein was started simultaneously with tPA via the right jugular vein beginning 10 min after the formation of occlusive thrombus, both given as a bolus over 1 min and infusion for 59 min. […] The incidence of reperfusion was used as the index of drug efficacy.

[2] = test system: rabbit jugular vein thrombus; assay: Rabbit jugular vein thrombosis model, thrombus weight; assay type: in vivo; settings: for Thrombus weight (wet): 90 min
Procedure: Thrombosis was initiated ex vivo and introduced into the jugular vein. Treatment compound(s) were administered to the animals after thrombus formation and introduction. Fibrinolysis was assessed by measuring clot weight at the end of the study. […] The threshold dose of tPA was combined with either a TAFI inhibitor of the invention, (2S)-2-(3-(amino)methylphenyl)-3-(((1R)-1-(3-phenylpropylsulfonyl)amino-2-methylpropyl)(hydroxy)phosphinoyl)propanoic acid trifluoroacetate, or the peptidic TAFI inhibitor CPI, which was used as a positive control to confirm the effect of TAFI inhibition in this model.
Male New Zealand white rabbits (2.35-3.14 kg) were anesthetized using isoflurane. A segment of the jugular vein was isolated with ligatures and injected with a mixture of autologous citrated blood and thromboplastin to induce thrombus formation. The thrombus formed in the isolated venous segment was allowed to mature for 30 minutes prior to releasing the ligatures and initiating thrombolytic treatment.
Rabbits were divided into the following treatment groups (10-12 animals per group): • (1) vehicle; phosphate buffered saline (PBS) • (2) threshold fibrinoloytic dose tPA (10 μg/kg+67 μg/kg/hr) • (3) CPI (500 μg/kg+300 μg/kg/hr)+tPA low (10 μg/kg+67μg/kg/hr) • (4) low TAFI inhibitor (0.3 mg/kg+0.14 mg/kg/hr)+tPA low (10 μg/kg+67 μg/kg/hr) • (5) high TAFI inhibitor (3 mg/kg+1.4 mg/kg/hr)+tPA low ([…]+67 μg/kg/hr) • (6) maximally effective dose tPA (30 μg/kg+200 μg/kg/hr)
Blood samples were collected from the left jugular vein for measurement of TAFI inhibitor plasma drug levels prior to releasing the ligatures (time=0), and at 1, 10, 30, 60, and 90 minutes after starting thrombolytic treatment. CPI, TAFI inhibitor, tPA or vehicle were administered as bolus injections, followed by a constant infusion for 90 minutes via the right marginal ear vein. At the end of 90 minutes, the rabbits were euthanized and the thrombus was removed for determination of wet and dry weights. The relative effects of all treatment groups were the same, regardless of whether wet or dry weights were utilized for analysis, so only wet weights are used in the subsequent discussion. The assessment of bleeding risk was evaluated by measuring the weight of blood loss from toe nail clips performed prior to thrombolytic treatment, and at the end of the study. Re-bleeding from the previous site following initial hemostasis was also recorded.
Data were analyzed using ANOVA followed by the LSD test for a comparison of differences in thrombus weight in the various treatment groups. In the vehicle-treated animals (group 1) thrombus weights averaged 98±9 mg. […] When either CPI (group 3) or TAFI inhibitor (group 4 or 5) was given together with the low dose of tPA, the threshold effect of tPA was enhanced, and a significant reduction in thrombus weights was observed when compared to the vehicle-treated group. This enhancement of fibrinolytic activity of tPA for the CPI group (68±10 mg) and the low dose TAFI inhibitor group (63±10 mg) was similar to results obtained with the high dose TAFI inhibitor group (56±13 mg). In animals treated with the higher dose of tPA (group 6), a significant reduction in thrombus weight (41±7 mg) was observed compared to both the vehicle and low dose tPA groups.

[3] = test system: α2-antiplasmin; assay: Ex vivo α2-antiplasmin activity (colorimetric assay) in dog plasma
Procedure: Plasma drug concentration was measured using LC/MS/MS techniques. Ex vivo α2-antiplasmin, an indicator of systemic plasmin activation, was measured by colorimetric assay. Exogenously activated TAFI (10 nM) was added into the blank plasma and TAFI activity measured by colorimetric assays was defined as 100%. Plasma from TAFI inhibitor-administered dogs were treated in the same way, and results were expressed as the percent inhibition of the spiked TAFI activity.

Compound	Incidence of reperfusion ([1]; TAFI inhibitor efficacy study, tPA threshold dose 72 μg/kg/min alone, reperfused/total rats)	Incidence of reperfusion ([1]; tPA dose response study, tPA 72 μg/kg/min infused 60 min, starting 10 min after occlusive thrombus, reperfused/total rats)	Incidence of reperfusion ([1]; tPA dose response study, tPA 115 μg/kg/min infused 60 min, reperfused/total rats)	Incidence of reperfusion ([1]; tPA dose response study, tPA 230 μg/kg/min infused 60 min, reperfused/total rats)	Thrombus weight (wet) ([2]; higher (maximally effective) dose tPA 30 μg/kg + 200 μg/kg/hr alone) [mg]	Thrombus weight (wet) ([2]; low (threshold) dose tPA 10 μg/kg + 67 μg/kg/hr alone, not significant vs vehicle) [mg]	% Reduction Thrombus Weight ([2]; threshold dose tPA (10 μg/kg + 1 μg/kg/min) alone) [%]	Activity of α2-antiplasmin (indicator of systemic plasmin activation) ([3]; tPA infusion, dose dependence)	Incidence of reperfusion ([1]; 3 mg/kg TAFI inhibitor + tPA (72 μg/kg/min) post-thrombus formation, p = ns)	Incidence of reperfusion ([1]; 10 mg/kg TAFI inhibitor + tPA (72 μg/kg/min) post-thrombus formation, p < 0.03)	Incidence of reperfusion ([1]; high TAFI inhibitor dose 10 mg/kg + 0.10 mg/kg/min i.v. + tPA threshold 72 μg/kg/min, post-thrombus, reperfused/total rats)	Incidence of reperfusion ([1]; low TAFI inhibitor dose 3 mg/kg + 0.03 mg/kg/min i.v. + tPA threshold 72 μg/kg/min, post-thrombus, reperfused/total rats)	% Reduction Thrombus Weight ([2]; 0.3 mg/kg TAFI inhibitor + tPA post-thrombus formation, p = ns) [% p = ns]	% Reduction Thrombus Weight ([2]; 3 mg/kg TAFI inhibitor + tPA post-thrombus formation, p = ns) [% p = ns]	Thrombus weight (wet) ([2]; high TAFI inhibitor 3 mg/kg + 1.4 mg/kg/hr + tPA low (10 pg/kg + 67 μg/kg/hr)) [mg]	Thrombus weight (wet) ([2]; low TAFI inhibitor 0.3 mg/kg + 0.14 mg/kg/hr + tPA low (10 μg/kg + 67 μg/kg/hr)) [mg]	Inhibition of α2-antiplasmin activity induced by tPA infusion ([3]; TAFI inhibitor administered pre- or post-thrombus formation + tPA)
tPA: tissue-type plasminogen activator, a plasminogen activator used as thrombolytic agent	2/16	1/8	5/10	6/8	41 ± 7	80 ± 11	18	dose-dependently reduced	–	–	–	–	–	–	–	–	–
CC(C)[C@H](NS(=O)(=O)CCCc1ccccc1)P(=O)(O)C[C@H](C(=O)O)c1cccc(CN)c1.O=C(O)C(F)(F)F [TAFI inhibitor, (2S)-2-(3-(amino)methylphenyl)-3-(((1R)-1-(3-phenylpropylsulfonyl)amino-2-methylpropyl)(hydroxy)phosphinoyl)propanoic acid trifluoroacetate]	–	–	–	–	–	–	–	–	25% (2/8) p = ns	63% (5/8) p < 0.03	5/8	2/8	36	43	56 ± 13	63 ± 10	did not change
